Counter-ions that a name gives are not always drawn.
Test: UV-VIS absorption spectra (optical property test)
Format: physicochemical
Settings: 10 μM, DMSO solution; for Absorbance × 10^4: at maximum absorption peak
Protocol: The UV-VIS absorption spectra of the compounds (10 μM, DMSO solution) were detected using Shimadzu UV2600 spectrophotometer, and the maximum absorption peak and absorbance of each compound were obtained.

Molecule | Absorption peak [nm] | Absorbance × 10^4
CC[N+]1=C(/C=C/C2=C(Cl)C(=C/C=C3/N(Cc4ccc(C(=O)Oc5ccccc5)cc4)c4ccc5ccccc5c4C3(C)C)/CCC2)C(C)(C)c2c1ccc1ccccc21 [Example 3] | 835 | 1.88
5-carboxy-2-((E)-2-((E)-2-chloro-3-(2-((E)-3,3-dimethyl-1-(6-oxo-6-phenoxyhexyl)indolin-2-ylidene)ethenyl)cyclohex-1-en-1-yl)ethenyl)-1,3,3-trimethyl-3H-indol-1-ium 2,2,2-trifluoroacetate [Example 120] | – | 1.73
CC[N+]1=C(/C=C/C2=C(Cl)C(=C/C=C3/N(CCCCCC(=O)Oc4ccccc4)c4ccccc4C3(C)C)/C[N+](C)(C)C2)C(C)(C)c2ccccc21 [Example 16, 2-((E)-2-((E)-4-chloro-5-(2-((E)-3,3-dimethyl-1-(6-oxo-6-phenoxyhexyl)indolin-2-ylidene)ethenyl)-1,1-dimethyl-1,2,5,6-tetrahydropyridin-1-ium-3-yl)ethenyl)-1-ethyl-3,3-dimethyl-3H-indol-1-ium Dichloride] | 766 | 1.71
CC1(C)C(/C=C/C2=C(Cl)C(=C/C=C3/N(CCCCCC(=O)Oc4ccccc4)c4ccccc4C3(C)C)/CCC2)=[N+](CCCCCC(=O)Oc2ccccc2)c2ccccc21 [Example 5, 2-((E)-2-((E)-2-chloro-3-(2-((E)-3,3-dimethyl-1-(6-oxo-6-phenoxyhexyl)indolin-2-ylidene)ethenyl)cyclohex-1-en-1-yl)ethenyl)-3,3-dimethyl-1-(6-oxo-6-phenoxyhexyl)-3H-indol-1-ium Chloride] | 796.5 | 1.17
CC[N+]1=C(/C=C/C2=C(Cl)C(=C/C=C3/N(CCCCCC(=O)O)c4ccc5ccccc5c4C3(C)C)/CC2)C(C)(C)c2c1ccc1ccccc21 [Example 1B, 2-((E)-2-((E)-3-((E)-2-(3-(5-carboxypentyl)-1,1-dimethyl-1,3-dihydro-2H-benzo[e]indol-2-ylidene)ethenyl)-2-chlorocyclopent-1-en-1-yl)ethenyl)-3-ethyl-1,1-dimethyl-1H-benzo[e]indol-3-ium Chloride] | 859.5 | 2.03
2-((E)-2-((E)-2-chloro-3-(2-((E)-3,3-dimethyl-1-(6-oxo-6-(phenylamino)hexyl)indolin-2-ylidene)ethenyl)cyclohex-1-en-1-yl)ethenyl)-3,3-dimethyl-1-(6-oxo-6-(phenylamino) hexyl)-3H-indol-1-ium 2,2,2-trifluoroacetate [Example 27B] | 797 | 2.117
C[N+]1=C(/C=C/C2=C(Cl)C(=C/C=C3/N(CCOCCC(=O)Oc4ccccc4)c4ccccc4C3(C)C)/CCC2)C(C)(C)c2ccccc21 [Example 52, 2-((E)-2-((E)-2-chloro-3-(2-((E)-3,3-dimethyl-1-(2-(3-oxo-3-phenoxypropoxy)ethyl)indolin-2-ylidene)ethenyl)cyclohex-1-en-1-yl)ethenyl)-1,3,3-trimethyl-3H-indol-1-ium Chloride] | – | 2.14
2-((E)-2-((E)-2-bromo-3-(2-((E)-3,3-dimethyl-1-(6-oxo-6-phenoxyhexyl)indolin-2-ylidene)ethenyl)cyclohex-1-en-1-yl)ethenyl)-1,3,3-trimethyl-3H-indol-1-ium 2,2,2-trifluoroacetate [Example 58] | – | 2.21
CC[N+]1=C(/C=C/C2=C(Cl)C(=C/C=C3/N(CCOCCCCCC(=O)Oc4ccccc4)c4ccccc4C3(C)C)/CCC2)C(C)(C)c2ccccc21 [Example 35, 2-((E)-2-((E)-2-chloro-3-(2-((E)-3,3-dimethyl-1-(2-((6-oxo-6-phenoxyhexyl)oxy)ethyl)indolin-2-ylidene)ethenyl)cyclohex-1-en-1-yl)ethenyl)-1-ethyl-3,3-dimethyl-3H-indol-1-ium 2,2,2-trifluoroacetate] | 794.5 | 2.21
CC[N+]1=C(/C=C/C2=C(Cl)C(=C/C=C3/N(CCOCCCC(=O)Oc4ccccc4)c4ccccc4C3(C)C)/CCC2)C(C)(C)c2ccccc21 [Example 36, 2-((E)-2-((E)-2-chloro-3-(2-((E)-3,3-dimethyl-1-(2-(4-oxo-4-phenoxybutoxy)ethyl)indolin-2-ylidene)ethenyl)cyclohex-1-en-1-yl)ethenyl)-1-ethyl-3,3-dimethyl-3H-indol-1-ium 2,2,2-trifluoroacetate] | 795.5 | 3.368
5-carboxy-2-((E)-2-((E)-2-chloro-3-(2-((E)-3,3-dimethyl-1-(2-(3-oxo-3-phenoxypropoxy)ethyl)indolin-2-ylidene)ethenyl)cyclohex-1-en-1-yl)ethenyl)-1-ethyl-3,3-dimethyl-3H-indol-1-ium 2,2,2-trifluoroacetate [Example 123] | – | 1.3

Results, then the molecule that gave them:

Absorption peak [nm] | Absorbance × 10^4 | Molecule
– | 1.36 | CC[N+]1=C(/C=C/C2=C(Cl)C(=C/C=C3/N(CCOCCC(=O)Oc4ccccc4)c4ccccc4C3(C)C)/CCC2)C(C)(C)c2cc(C(=O)O)ccc21 [Example 117, 5-carboxy-2-((E)-2-((E)-2-chloro-3-(2-((E)-3,3-dimethyl-1-(2-(3-oxo-3-phenoxypropoxy)ethyl)indolin-2-ylidene)ethenyl)cyclohex-1-en-1-yl)ethenyl)-1-ethyl-3,3-dimethyl-3H-indol-1-ium 2,2,2-trifluoroacetate]
– | 0.6 | C[n+]1cccc2c1N=C(/C=C/C1=C(Cl)C(=C/C=C3/N(CCCCCC(=O)Oc4ccccc4)c4ccccc4C3(C)C)/CCC1)C2(C)C [Example 53, 2-((E)-2-((E)-2-chloro-3-(2-((E)-3,3-dimethyl-1-(6-oxo-6-phenoxyhexyl)indolin-2-ylidene)ethenyl)cyclohex-1-en-1-yl)ethenyl)-3,3,7-trimethyl-3H-pyrrolo[2,3-b]pyridin-7-ium 2,2,2-trifluoroacetate]
778.5 | 2.028 | CCN1/C(=C/C=C2\C[N+](C)(C)CC(/C=C/C3=[N+](CC)c4ccccc4C3(C)C)=C2Sc2ccccc2)C(C)(C)c2ccccc21.Cl [Example 107]
807.5 | 1.997 | CC[N+]1=C(/C=C/C2=C(Sc3ccccc3)C(=C/C=C3/N(CCCCCC(=O)Oc4ccccc4)c4ccccc4C3(C)C)/CCC2)C(C)(C)c2ccccc21.[Cl-] [Example 106]
– | 1.86 | CC1(C)C(/C=C/C2=C(Cl)C(=C/C=C3/N(CCCCCC(=O)Oc4ccccc4)c4ccccc4C3(C)C)/CC2)=[N+](CCCCCC(=O)O)c2ccccc21.[Cl-] [Example 89]
796.5 | 2.27 | CC1(C)C(/C=C/C2=C(Cl)C(=C/C=C3/N(CCCCCC(=O)Oc4ccccc4)c4ccccc4C3(C)C)/CCC2)=[N+](CCCCCC(=O)O)c2ccccc21 [Example 11]
– | 2.57 | CC[N+]1=C(/C=C/C2=C(Br)C(=C/C=C3/N(CCCCCC(=O)Oc4ccccc4)c4ccccc4C3(C)C)/CCC2)C(C)(C)c2ccccc21 [Example 54, 2-((E)-2-((E)-2-bromo-3-(2-((E)-3,3-dimethyl-1-(6-oxo-6-phenoxyhexyl)indolin-2-ylidene)ethenyl)cyclohex-1-en-1-yl)ethenyl)-1-ethyl-3,3-dimethyl-3H-indol-1-ium Formate]
– | 1.9 | C[N+]1=C(/C=C/C2=C(Cl)C(=C/C=C3/N(CCOCCOCCC(=O)Oc4ccccc4)c4ccccc4C3(C)C)/CCC2)C(C)(C)c2ccccc21 [Example 51, 2-((E)-2-((E)-2-chloro-3-(2-((E)-3,3-dimethyl-1-(2-(2-(3-oxo-3-phenoxypropoxy)ethoxy)ethyl)indolin-2-ylidene)ethenyl)cyclohex-1-en-1-yl)ethenyl)-1,3,3-trimethyl-3H-indol-1-ium Formate]
821 | 2.466 | CC[N+]1=C(/C=C/C2=C(Cl)C(=C/C=C3/N(CCOCCC(=O)Oc4ccccc4)c4ccccc4C3(C)C)/CC2)C(C)(C)c2ccccc21 [Example 21, 2-((E)-2-((E)-2-chloro-3-(2-((E)-3,3-dimethyl-1-(2-(3-oxo-3-phenoxypropoxy)ethyl)indol-2-methylene)ethylidene)cyclopent-1-en-1-yl)ethenyl)-1-ethyl-3,3-dimethyl-3H-indol-1-ium Trifluoroacetate]
756 | 0.911 | CC[N+]1=C(/C=C/C2=C(Oc3ccc(S(=O)(=O)O)cc3)C(=C/C=C3/N(CCCCCC(=O)Oc4ccccc4)c4ccccc4C3(C)C)/C[N+](C)(C)C2)C(C)(C)c2ccccc21 [Example 112]
632 | 0.68 | CCN1/C(=C/C=C2\CCCC(/C=C/C3=[N+](CC)c4ccccc4C3(C)C)=C2NCCCCCC(=O)O)C(C)(C)c2ccccc21 [Example 13, 2-((E)-2-((E)-2-((5-carboxypentyl)amino)-3-(2-((E)-1-ethyl-3,3-dimethylindolin-2-ylidene)ethenyl)cyclohex-1-en-1-yl)ethenyl)-1-ethyl-3,3-dimethyl-3H-indol-1-ium Formate]
764.5 | 2.12 | CCN1/C(=C/C=C2\C[N+](C)(C)CC(/C=C/C3=[N+](CC)c4ccccc4C3(C)C)=C2Cl)C(C)(C)c2ccccc21 [Example 18, 2-((E)-2-((E)-4-chloro-5-(2-((E)-1-ethyl-3,3-dimethylindolin-2-ylidene)ethenyl)-1,1-dimethyl-1,2,5,6-tetrahydropyridin-1-ium-3-yl)ethenyl)-1-ethyl-3,3-dimethyl-3H-indol-1-ium Ditrifluoroacetate]
– | 2.41 | CC1(C)C(/C=C/C2=C(Cl)C(=C/C=C3/N(CCCCCC(=O)O)c4ccccc4C3(C)C)/CC2)=[N+](CCCCCC(=O)O)c2ccccc21 [Example 84, 1-(5-carboxypentyl)-2-((E)-2-((E)-3-(2-((E)-1-(5-carboxypentyl)-3,3-dimethylindolin-2-ylidene)ethenyl)-2-chlorocyclopent-1-en-1-yl)ethenyl)-3,3-dimethyl-3H-indol-1-ium Chloride]

Source: patent US20260191998A1, “INDOLE PHTHALOCYANINE COMPOUND, PREPARATION METHOD THEREFOR, AND USE THEREOF IN TUMOR DIAGNOSIS IMAGING” (JIANGSU YAHONG MEDITECH CO., LTD., priority 2022, published 2026)
